According to patent publication US20120214760A1, “TREATMENT OF URINARY TRACT INFECTIONS WITH ANTIBACTERIAL AMINOGLYCOSIDE COMPOUNDS” (Achaogen, Inc., priority 2009, published 2012):
In brackets after ≈: the same amount, converted by molar mass. Read-outs that look alike come from different tables or passages of the source.

Columns and labels:
[1] = tested on: E. coli ATCC 25922 (AECO001); assay: MIC, CLSI broth microdilution; assay type: cell-based; details: Escherichia coli
Method: (§1) Minimum inhibitory concentrations (MIC) were determined by reference Clinical and Laboratory Standards Institute (CLSI) broth microdilution methods per M7-A7 [2006]. Quality control ranges utilizing E. coli ATCC 25922, P. aeruginosa ATCC 27853 and S. aureus ATCC 29213, and interpretive criteria for comparator agents were as published in CLSI M100-S17 [2007]. Briefly, serial two-fold dilutions of the test compounds were prepared at 2× concentration in Mueller Hinton Broth. The compound dilutions were mixed in 96-well assay plates in a 1:1 ratio with bacterial inoculum. The inoculum was prepared by suspension of a colony from an agar plate that was prepared the previous day. Bacteria were suspended in sterile saline and added to each assay plate to obtain a final concentration of 5×10^5 CFU/mL. The plates were incubated at 35° C. for 20 hours in ambient air.

[2] = tested on: P. aeruginosa ATCC 27853 (APAE001); assay: MIC, CLSI broth microdilution; assay type: cell-based; details: Pseudomonas aeruginosa
Method: as §1

[3] = ATCC25922, read-out: MIC AECO001, Table 1, AECO001 is ATCC25922
[4] = ATCC27853, read-out: MIC APAE001, Table 1, APAE001 is ATCC27853
[5] = ATCC25922, Table 2, read-out: MIC E. coli
[6] = Table 1, AECO001 is ATCC25922, read-out: MIC AECO001
[7] = ATCC27853, Table 2, read-out: MIC P. aeruginosa

| SMILES | MIC [1, 3] [µg/mL] | MIC [2, 4] [µg/mL] | MIC [1, 5] [µg/mL] | MIC [1, 6] [µg/mL] | MIC [2, 7] [µg/mL] |
| --- | --- | --- | --- | --- | --- |
| CN[C@@H]1[C@@H](O)[C@@H](O[C@@H]2[C@@H](O)[C@H](O[C@H]3OC(CNCCO)=CC[C@H]3N)[C@@H](N)C[C@H]2NC(=O)[C@H](O)CCN)OC[C@]1(C)O [Example 2, 6′-(2-Hydroxy-ethyl)-1-(4-amino-2(R)-hydroxy-butyryl)-sisomicin] | 1 to 16 (≈ 1.69 to 27 µM) | 1 to 16 (≈ 1.69 to 27 µM) |  |  |  |
| CN[C@@H]1[C@@H](O)[C@@H](O[C@@H]2[C@@H](O)[C@H](O[C@H]3OC(CNCC(O)CO)=CC[C@H]3N)[C@@H](N)C[C@H]2NC(=O)[C@H](O)CCN)OC[C@]1(C)O (stereo partly drawn) [Example 3, 6′-(2-Hydroxy-propanol)-1-(4-amino-2(R)-hydroxy-butyryl)-sisomicin] | 1 to 16 (≈ 1.61 to 25.7 µM) | > 16 |  |  |  |
| CN[C@@H]1[C@@H](O)[C@@H](O[C@@H]2[C@@H](O)[C@H](O[C@H]3OC(CNCC4CCNCC4)=CC[C@H]3N)[C@@H](N)C[C@H]2NC(=O)[C@H](O)CCN)OC[C@]1(C)O [Example 4, 6′-(Methyl-piperidin-4-yl)-1-(4-amino-2(R)-hydroxy-butyryl)-sisomicin] | 1 to 16 (≈ 1.55 to 24.8 µM) | 1 to 16 (≈ 1.55 to 24.8 µM) |  |  |  |
| CN[C@@H]1[C@@H](O)[C@@H](O[C@@H]2[C@@H](O)[C@H](O[C@H]3OC(CNCC4CC4)=CC[C@H]3N)[C@@H](N)C[C@H]2NC(=O)[C@H](O)CCN)OC[C@]1(C)O [Example 5, 6′-(Methyl-cyclopropyl)-1-(4-amino-2(R)-hydroxy-butyryl)-sisomicin] | < 1 | 1 to 16 (≈ 1.66 to 26.5 µM) |  |  |  |
| CN[C@@H]1[C@@H](O)[C@@H](O[C@@H]2[C@@H](O)[C@H](O[C@H]3OC(CNCCCN)=CC[C@H]3N)[C@@H](N)C[C@H]2NC(=O)[C@H](O)CCN)OC[C@]1(C)O [Example 6, 6′-(3-Amino-propyl)-1-(4-amino-2(R)-hydroxy-butyryl)-sisomicin] | 1 to 16 (≈ 1.65 to 26.4 µM) | 1 to 16 (≈ 1.65 to 26.4 µM) |  |  |  |
| CN[C@@H]1[C@@H](O)[C@@H](O[C@@H]2[C@@H](O)[C@H](O[C@H]3OC(CNCC4CC4)=CC[C@H]3N)[C@@H](N)C[C@H]2NC(=O)[C@H](O)CN)OC[C@]1(C)O [Example 7, 6′-Methyl-cyclopropyl-1-(3-amino-2(R)-hydroxy-propionyl)-sisomicin] | < 1 | 1 to 16 (≈ 1.7 to 27.2 µM) |  |  |  |
| CN[C@@H]1[C@@H](O)[C@@H](O[C@@H]2[C@@H](O)[C@H](O[C@H]3OC(CNCC4CCNCC4)=CC[C@H]3N)[C@@H](N)C[C@H]2NC(=O)[C@H](O)CN)OC[C@]1(C)O [Example 8, 6′-Methyl-piperidinyl-1-(3-amino-2(R)-hydroxy-propionyl)-sisomicin] | < 1 | 1 to 16 (≈ 1.58 to 25.3 µM) |  |  |  |
| CN[C@@H]1[C@@H](O)[C@@H](O[C@@H]2[C@@H](O)[C@H](O[C@H]3OC(CNCCO)=CC[C@H]3N)[C@@H](N)C[C@H]2NC(=O)[C@H](O)CN)OC[C@]1(C)O [Example 9, 6′-(2-Hydroxy-ethyl)-1-(3-amino-2(R)-hydroxy-propionyl)-sisomicin] | 1 to 16 (≈ 1.73 to 27.6 µM) | > 16 |  |  |  |
| CN[C@@H]1[C@@H](O)[C@@H](O[C@@H]2[C@@H](O)[C@H](O[C@H]3OC(CNCC(O)CO)=CC[C@H]3N)[C@@H](N)C[C@H]2NC(=O)[C@H](O)CN)OC[C@]1(C)O (stereo partly drawn) [Example 10, 6′-(2-Hydroxy-propanol)-1-(3-amino-2(R)-hydroxy-propionyl)-sisomicin] | 1 to 16 (≈ 1.64 to 26.3 µM) | 1 to 16 (≈ 1.64 to 26.3 µM) |  |  |  |
| CN[C@@H]1[C@@H](O)[C@@H](O[C@@H]2[C@@H](O)[C@H](O[C@H]3OC(CNCCCN)=CC[C@H]3N)[C@@H](N)C[C@H]2NC(=O)[C@H](O)CN)OC[C@]1(C)O [Example 11, 6′-(3-Amino-propyl)-1-(3-amino-2(R)-hydroxy-propionyl)-sisomicin] | < 1 | 1 to 16 (≈ 1.69 to 27 µM) |  |  |  |
| CN[C@@H]1[C@@H](O)[C@@H](O[C@@H]2[C@@H](O)[C@H](O[C@H]3OC(CNCC(O)CO)=CC[C@H]3N)[C@@H](N)C[C@H]2NC(=O)[C@@H](O)CN)OC[C@]1(C)O (stereo partly drawn) [Example 14, 6′-(2-Hydroxy-propanol)-1-(3-amino-2(S)-hydroxy-propionyl)-sisomicin] | 1 to 16 (≈ 1.64 to 26.3 µM) | 1 to 16 (≈ 1.64 to 26.3 µM) |  |  |  |
| CN[C@@H]1[C@@H](O)[C@@H](O[C@@H]2[C@@H](O)[C@H](O[C@H]3OC(CNCC4CCNCC4)=CC[C@H]3N)[C@@H](N)C[C@H]2NC(=O)[C@@H](O)CN)OC[C@]1(C)O [Example 15, 6′-(Methyl-piperidin-4-yl)-1-(3-amino-2(S)-hydroxy-propionyl)-sisomicin] |  |  | < 1 | < 1 | 1 to 16 (≈ 1.58 to 25.3 µM) |
| CN[C@@H]1[C@@H](O)[C@@H](O[C@@H]2[C@@H](O)[C@H](O[C@H]3OC(CNCC(O)CO)=CC[C@H]3N)[C@@H](N)C[C@H]2NC(=O)[C@@H](O)CCN)OC[C@]1(C)O (stereo partly drawn) [Example 19, 6′-(2-Hydroxy-propanol)-1-(4-amino-2(S)-hydroxy-butyryl)-sisomicin] | < 1 | 1 to 16 (≈ 1.61 to 25.7 µM) |  |  |  |
| CN[C@@H]1[C@@H](O)[C@@H](O[C@@H]2[C@@H](O)[C@H](O[C@H]3OC(CNC(=O)C(O)CN)=CC[C@H]3N)[C@@H](N)C[C@H]2NC(=O)[C@@H](O)CN)OC[C@]1(C)O (stereo partly drawn) [Example 20, 6′-(3-Amino-2-hydroxy-propionyl)-1-(3-amino-2(S)-hydroxy-propionyl)-sisomicin] | > 16 | > 16 |  |  |  |
| CN[C@@H]1[C@@H](O)[C@@H](O[C@@H]2[C@@H](O)[C@H](O[C@H]3OC(CNCC(O)C(N)=O)=CC[C@H]3N)[C@@H](N)C[C@H]2NC(=O)[C@@H](O)CN)OC[C@]1(C)O (stereo partly drawn) [Example 21, 6′-(2-Hydroxy-3-propionamide)-1-(3-amino-2(S)-hydroxy-propionyl)-sisomicin] | 1 to 16 (≈ 1.61 to 25.7 µM) | 1 to 16 (≈ 1.61 to 25.7 µM) |  |  |  |
| CN[C@@H]1[C@@H](O)[C@@H](O[C@@H]2[C@@H](O)[C@H](O[C@H]3OC(CNCC(O)CN)=CC[C@H]3N)[C@@H](N)C[C@H]2NC(=O)[C@@H](O)CN)OC[C@]1(C)O (stereo partly drawn) [Example 22, 6′-(3-Amino-2-hydroxy-propyl)-1-(3-amino-2(S)-hydroxy-propionyl)-sisomicin] |  |  | 1 to 16 (≈ 1.65 to 26.3 µM) | 1 to 16 (≈ 1.65 to 26.3 µM) | 1 to 16 (≈ 1.65 to 26.3 µM) |
| CN[C@@H]1[C@@H](O)[C@@H](O[C@@H]2[C@@H](O)[C@H](O[C@H]3OC(CNCC(O)CO)=CC[C@H]3N)[C@@H](N)C[C@H]2NC(=O)CO)OC[C@]1(C)O (stereo partly drawn) [Example 23, 6′-(2-Hydroxy-propanol)-1-(2-hydroxy-acetyl)-sisomicin] | > 16 | > 16 |  |  |  |
| CN[C@@H]1[C@@H](O)[C@@H](O[C@@H]2[C@@H](O)[C@H](O[C@H]3OC(CNCCCN)=CC[C@H]3N)[C@@H](N)C[C@H]2NC(=O)CO)OC[C@]1(C)O [Example 24, 6′-(3-Amino-propyl)-1-(2-hydroxy-acetyl)-sisomicin] | 1 to 16 (≈ 1.78 to 28.4 µM) | 1 to 16 (≈ 1.78 to 28.4 µM) |  |  |  |
| CN[C@@H]1[C@@H](O)[C@@H](O[C@@H]2[C@@H](O)[C@H](O[C@H]3OC(CNCCO)=CC[C@H]3N)[C@@H](N)C[C@H]2NC(=O)CO)OC[C@]1(C)O [Example 25, 6′-(2-Hydroxy-ethyl)-1-(2-hydroxy-acetyl)-sisomicin] | 1 to 16 (≈ 1.82 to 29.1 µM) | 1 to 16 (≈ 1.82 to 29.1 µM) |  |  |  |
| CN[C@@H]1[C@@H](O)[C@@H](O[C@@H]2[C@@H](O)[C@H](O[C@H]3OC(CNCCCN)=CC[C@H]3N)[C@@H](N)C[C@H]2NS(=O)(=O)CCN)OC[C@]1(C)O [Example 26, 6′-(3-Amino-propyl)-1-(2-amino-ethylsulfonamide)-sisomicin] | 1 to 16 (≈ 1.63 to 26.2 µM) | 1 to 16 (≈ 1.63 to 26.2 µM) |  |  |  |
| CN[C@@H]1[C@@H](O)[C@@H](O[C@@H]2[C@@H](O)[C@H](O[C@H]3OC(CNCC(O)CO)=CC[C@H]3N)[C@@H](N)C[C@H]2NS(=O)(=O)CCN)OC[C@]1(C)O (stereo partly drawn) [Example 27, 6′-(2-Hydroxy-propanol)-1-(2-amino-ethylsulfonamide)-sisomicin] | 1 to 16 (≈ 1.59 to 25.4 µM) | > 16 |  |  |  |
| CN[C@@H]1[C@@H](O)[C@@H](O[C@@H]2[C@@H](O)[C@H](O[C@H]3OC(CNC[C@H](O)CO)=CC[C@H]3N)[C@@H](N)C[C@H]2NC(=O)[C@@H](O)CCN)OC[C@]1(C)O [Example 28, 6′-(2(S)-Hydroxy-propanol)-1-(4-amino-2(S)-hydroxy-butyryl)-sisomicin] | 1 to 16 (≈ 1.61 to 25.7 µM) | 1 to 16 (≈ 1.61 to 25.7 µM) |  |  |  |
| CN[C@@H]1[C@@H](O)[C@@H](O[C@@H]2[C@@H](O)[C@H](O[C@H]3OC(CNCCO)=CC[C@H]3N)[C@@H](N)C[C@H]2NS(=O)(=O)CCN)OC[C@]1(C)O [Example 29, 6′-(2-Hydroxy-ethyl)-1-(2-amino-ethylsulfonamide)-sisomicin] | 1 to 16 (≈ 1.67 to 26.7 µM) | > 16 |  |  |  |
| CN[C@@H]1[C@@H](O)[C@@H](O[C@@H]2[C@@H](O)[C@H](O[C@H]3OC(CNCC(N)CO)=CC[C@H]3N)[C@@H](N)C[C@H]2NC(=O)[C@@H](O)CCN)OC[C@]1(C)O (stereo partly drawn) [Example 30, 6′-(2-Amino-propanol)-1-(4-amino-2(S)-hydroxy-butyryl)-sisomicin] | < 1 | 1 to 16 (≈ 1.61 to 25.7 µM) |  |  |  |
| CN[C@@H]1[C@@H](O)[C@@H](O[C@@H]2[C@@H](O)[C@H](O[C@H]3OC(CNCC4(O)CCNCC4)=CC[C@H]3N)[C@@H](N)C[C@H]2NC(=O)[C@@H](O)CCN)OC[C@]1(C)O [Example 31] | 1 to 16 (≈ 1.51 to 24.2 µM) | 1 to 16 (≈ 1.51 to 24.2 µM) |  |  |  |
| CN[C@@H]1[C@@H](O)[C@@H](O[C@@H]2[C@@H](O)[C@H](O[C@H]3OC(CNCC(O)CCCN)=CC[C@H]3N)[C@@H](N)C[C@H]2NC(=O)[C@@H](O)CCN)OC[C@]1(C)O (stereo partly drawn) [Example 32, 6′-(2-Hydroxy-5-amino-pentyl)-1-(4-amino-2(S)-hydroxy-butyryl)-sisomicin] | < 1 | 1 to 16 (≈ 1.54 to 24.6 µM) |  |  |  |
